Patent EP1599478B1, “DIHYDROPTERIDINONES, METHOD FOR THE PRODUCTION AND USE THEREOF IN THE FORM OF DRUGS” (Boehringer Ingelheim Pharma GmbH & Co.KG, priority 2003, dated 2004)
Like-named read-outs stand apart in the source and are kept apart here.

Test system: HeLaS3 Zellen
Assay: Cytotoxicity test on cultured human tumour cells (AlamarBlue)
Assay type: cell-based
Conditions: read-out: HELA
From the text: Die Wirkung der erfindungsgemäBen Verbindungen wurde im Cytotoxizitätstest an kultivierten humanen Tumorzellen und/oder in einer FACS-Analyse, beispielsweise an HeLaS3-Zellen, bestimmt.
Messung der Cytotoxizität an kultivierten humanen Tumorzellen
Zur Messung der Cytotoxizität an kultivierten humanen Tumorzellen wurden Zellen der zervikalen Carcinoma Tumorzell-Linie HeLaS3 (erhalten von American Type Culture Collection (ATCC)) in Ham's F12 Medium (Life Technologies) und 10% fötalem Rinderserum (Life Technologies) kultiviert und in der log-Wachstumsphase geerntet. Anschließend wurden die HeLaS3 Zellen in 96-well Platten (Costar) mit einer Dichte von 1000 Zellen pro well eingebracht und über Nacht in einem Inkubator (bei 37°C und 5 % CO2) inkubiert, wobei auf jeder Platte 6 wells nur mit Medium gefüllt wurden (3 wells zur Mediumkontrolle, 3 wells zur Inkubation mit reduzierten AlamarBlue). Die Wirksubstanzen wurden in verschiedenen Konzentrationen (gelöst in DMSO; Endkonzentration: 1%) zu den Zellen zugegeben (jeweils als Dreifachbestimmung) Nach 72 Stunden Inkubation wurden zu jeden well 20 µl AlamarBlue (AccuMed International) zugesetzt, und die Zellen für weitere 7 Stunden inkubiert. Zur Kontrolle wurde zu 3 wells je 20 µl reduziertes Alamar Blue gegeben (AlamarBlue Reagenz, das für 30 min autoklaviert wurde). Nach 7 h Inkubation wurde der Farbumsatz des AlamarBlue Reagenz in den einzelnen wells in einem Perkin Elmer Fluoreszenspektrophotometer bestimmt (Exitation 530 nm, Emission 590 nm, Slits 15, Integrate time 0.1). Die Menge an umgesetzten AlamarBlue Reagenz repräsentiert die metabolische Aktivität der Zellen. Die relative Zellaktivität wurde in Prozent der Kontrolle (HeLa S3 Zellen ohne Inhibitor) berechnet und die Wirkstoffkonzentration, die die Zellaktivität zu 50% hemmt (IC^50) abgeleitet. Die Werte wurden hierbei aus dem Mittelwert von drei Einzelbestimmungen - unter Korrektur des Leerwertes (Mediumkantrolle)- berechnet.

[1] = HeLa S3, HeLa cells, unit inferred

Row | SMILES | IC50 [1] | IC50 (HeLa S3, 72 h)
1 | COc1cc(C(=O)NC2CCNCC2)ccc1Nc1ncc2c(n1)N(C1CCCC1)[C@H](C)C(=O)N2C [compound 238] | 15 nM | –
2 | CC[C@@H]1C(=O)N(C)c2cnc(Nc3ccc(C(=O)NC(C)(C)CN4CCN(C)CC4)cc3OC)nc2N1CCC(C)C [compound 241] | 44 nM | –
3 | COc1cc(C(=O)NC(C)(C)CN(C)C)ccc1Nc1ncc2c(n1)N(C1CCCCC1)[C@H](C)C(=O)N2C [compound 240] | 17 nM | –
4 | COc1cc(C(=O)NC(C)(C)CN2CCCC2)ccc1Nc1ncc2c(n1)N(c1ccccc1OC)[C@H](C)C(=O)N2C [compound 227] | 853 nM | –
5 | CC[C@@H]1C(=O)N(C)c2cnc(Nc3ccc(C(=O)NC(C)(C)CN4CCOCC4)cc3OC)nc2N1C1CCCC1 [compound 239] | 51 nM | –
6 | COc1cc(C(=O)NC2CCN(C)CC2)ccc1Nc1ncc2c(n1)N(c1ccccc1OC)[C@H](C)C(=O)N2C [compound 226] | 295 nM | –
7 | CC[C@@H]1C(=O)N(C)c2cnc(Nc3ccc(C(=O)NC4CCN(C)CC4)cc3OC)nc2N1C1CCCC1 [compound 46] | – | 12 nM
8 | COc1cccc(N2c3nc(Nc4ccc(C(=O)NC5CCN(C)CC5)cc4OC)ncc3N(C)C(=O)[C@H]2C)c1 [compound 224] | 1060 nM | –
9 | COc1cccc(N2c3nc(Nc4ccc(C(=O)NC5CCN(C)CC5)cc4)ncc3N(C)C(=O)[C@H]2C)c1 [compound 225] | 1180 nM | –
